Laboratory results: US20130210034A1, “COMPLEX PHOSPHOPROTEIN ACTIVATION PROFILES” (BECKMAN COULTER, INC., priority 2005, published 2013)
“And” between values parts separate entries of the source, which are not always exact repeats. Equal values may be shown once.

How the values were obtained:
Test in all cases: Cytokine-stimulated phosphorylation in immunophenotypically defined cell populations from healthy donor BM (flow cytometry);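 for pAKT S/N ratio: Phosphoprotein MFI normalized to lymphocyte MFI as internal negative control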;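 for pERK S/N ratio: Phosphoprotein MFI normalized to lymphocyte MFI as internal negative control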
Type in all cases: cell-based, human
[1] = system: pAKT; conditions: for pAKT Percent (%) Responding Cells, Mean / pAKT S/N ratio: healthy donor BM, mean ± SD; for pAKT, Normal Sample: Table 7 comparison value;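 for pAKT S/N ratio: Phosphoprotein MFI normalized to lymphocyte MFI as internal negative control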
Experimental: (§1) Bone marrow (BM) samples were collected in 7.5 mL Iscove's modified Dulbecco's medium (IMDM) supplemented with 100U penicillin, 0.01 mg/mL streptomycin, and 70 μg/mL heparin sodium salt from 10 patients undergoing hip replacement surgery, who were otherwise healthy. These patients were from a pool of surgery patients, age 49 to 77, and represented […] patients. […] These BM samples were rinsed twice with IMDM to release cells, filtered using a 100 μm Nylon cell strainer to remove marrow particles, and centrifuged for at RT fro 7 minutes at 200 g. The cell pellet was washed twice with sterile IMDM to remove traces of fat and re-suspended in IMDM to a concentration of 3×10^7 cells/mL.
(§2) To assess the signal transduction response after growth factor simulation, a series comprising two sets of tubes including about 3×10^6 cells/100 μL were incubated at 37° C. for 30 minutes. After this pre-incubation period, tubes with then processes with either a stimulant or inhibitor. […] To examine the effects of protein phosphorylation inhibition, tubes were incubated with an inhibitor cocktail comprising 100 μM/100 μL UO126, 1 μM/100 μL LY294002, and 1 μM/100 μL rapamycin. One unstimulated tube receiving no stimulant or inhibitor was processed to assess basal levels of phospho-protein expression. After stimulation the cells were immediately fixed in 10% formaldehyde solution at 37° C. Pre-labeling with CD13, CD16 and CD64 antibodies was carried out 20 minutes prior to formaldehyde fixation. After fixation, one set of tubes was permeabilized without methanol for pAKT, pERK and pS6 staining and the other for 80% methanol permeabilized for pSTAT3 and pSTAT5 staining. After permeablization, the cells were washed in PBS with 2% BSA and blocked by re-suspended in 75 μL of PBS comprising 25% heat inactivated normal mouse serum, 25% normal rabbit serum. To stain cells with fluorescent conjugated monoclonal antibodies, samples were incubated on ice for 45 minutes in 100 μL of an antibody staining solution including either: 1) CD15-Pacific Orange, CD34-Phycoerythrin-Texas Red, CD117-Phycoerythrin-Cyanin 5.5, CD45-Allophycocyanin-Alexa Fluor 750 (or CD45-Pacific Orange, in which case CD15-Pacific Orange was omitted), pS6-Pacific Blue, pERK-Alexa Fluor 488 and pAKT-Alexa Fluor 647 or 2) CD15-Pacific Orange, CD34-Phycoerythrin-Texas Red, CD117-Phycoerythrin-Cyanin 5.5, CD45-Allophycocyanin-Alexa Fluor 750 or CD45-Pacific Blue, pSTAT3-Alexa Fluor 488 and pSTAT5-Phycoerythrin. The stained cells were washed twice with ice cold PBS containing 2% BSA and centrifuged at 800 g for 6 minutes at 4° C. The supernatant was discarded and cells re-suspended in 250 μL of chilled wash buffer for data acquisition. Stained cells were examined using either GALIOS flow cytometer (Beckman Coulter) or CYAN ADP (Beckman Coulter) equipped with 488 nm, 405 nm and 635 nm lasers to detect the degree of fluorescence. Data were analyzed using FCS Express (De Novo Software, CA) analysis software.
(§3) Specific phosphoprotein expression of pERK, pS6, pAKT, pSTAT5, and pSTAT3 was examined in seven discrete phenotypically defined populations based on 7-color immunophenotyping (FIG. 1). The percent of responding (phosphorprotein positive) cells for each of these populations was determined from individual single parameter histograms based on a fixed integration region set on the inhibitor treated control at about 3% positives.

[2] = system: pERK; conditions: for pERK Percent (%) Responding Cells, Mean / pERK S/N ratio: healthy donor BM, mean ± SD;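 for pERK S/N ratio: Phosphoprotein MFI normalized to lymphocyte MFI as internal negative control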
Experimental: as §1, §2, §3

[3] = system: pS6; conditions: for pS6 Percent (%) Responding Cells, Mean / pS6 S/N ratio: healthy donor BM, mean ± SD
Experimental: as §1, §2, §3

[4] = system: pSTAT3; conditions: healthy donor BM, mean ± SD
Experimental: as §1, §2, §3

[5] = system: pSTAT5; conditions: for pSTAT5 Percent (%) Responding Cells, Mean / pSTAT5 S/N ratio: healthy donor BM, mean ± SD
Experimental: as §1, §2, §3

[6] = Table 7 comparison value, matches percent responding CD34^+ cells of Tables 1-5

## Granulocyte-Macrophage Colony-Stimulating Factor [GM-CSF]
[1]; CD34^+ (CD34^+/CD117^+ cells)
  pAKT Percent (%) Responding Cells, Mean: 22.5 ± 23.4%
  pAKT S/N ratio: 3.2 ± 3.3
[1]; CD117^+ (CD34^−/CD117^+ cells)
  pAKT Percent (%) Responding Cells, Mean: 13.3 ± 23.7%
  pAKT S/N ratio: 2.2 ± 1.3
[1]; G1, immature myeloid cells
  pAKT Percent (%) Responding Cells, Mean: 11.2 ± 19.8%
  pAKT S/N ratio: 3.0 ± 1.6
[1]; G2, intermediate myeloid cells
  pAKT Percent (%) Responding Cells, Mean: 17.6 ± 26.1%
  pAKT S/N ratio: 3.2 ± 1.6
[1]; G3, mature myeloid cells
  pAKT Percent (%) Responding Cells, Mean: 17.5 ± 26.0%
  pAKT S/N ratio: 3.7 ± 1.9
[1]; Mono, monocytes
  pAKT Percent (%) Responding Cells, Mean: 17.6 ± 27.3%
  pAKT S/N ratio: 3.6 ± 2.3
[1]
  pAKT, Normal Sample: 16.2
[2]; CD34^+ (CD34^+/CD117^+ cells)
  pERK Percent (%) Responding Cells, Mean: 30.1% and 30.1 ± 11.5%
  pERK S/N ratio: 10.6 ± 4.4
[2]; CD117^+ (CD34^−/CD117^+ cells)
  pERK S/N ratio: 3.8 ± 0.4
[2]; G1, immature myeloid cells
  pERK Percent (%) Responding Cells, Mean: 53.9% and 53.9 ± 20.8%
  pERK S/N ratio: 6.2 ± 1.8
[2]; G2, intermediate myeloid cells
  pERK Percent (%) Responding Cells, Mean: 91.5 ± 16.0%
  pERK S/N ratio: 9.4 ± 2.4
[2]; G3, mature myeloid cells
  pERK Percent (%) Responding Cells, Mean: 91.5% and 90.7 ± 15.0%
  pERK S/N ratio: 11.3 ± 3.1
[2]; Mono, monocytes
  pERK Percent (%) Responding Cells, Mean: 52.0 ± 22.6%
  pERK S/N ratio: 11.4 ± 4.5
[3]; CD34^+ (CD34^+/CD117^+ cells)
  pS6 Percent (%) Responding Cells, Mean: 60.1% and 60.1 ± 14.1%
  pS6 S/N ratio: 35.7 ± 31.7
[3]; CD117^+ (CD34^−/CD117^+ cells)
  pS6 Percent (%) Responding Cells, Mean: 38.5 ± 11.5%
  pS6 S/N ratio: 52.7 ± 44.0
[3]; G1, immature myeloid cells
  pS6 Percent (%) Responding Cells, Mean: 3.4 ± 1.3%
  pS6 S/N ratio: 5.1 ± 3.2
[3]; G2, intermediate myeloid cells
  pS6 Percent (%) Responding Cells, Mean: 11.3 ± 15.9%
  pS6 S/N ratio: 5.7 ± 3.7
[3]; G3, mature myeloid cells
  pS6 Percent (%) Responding Cells, Mean: 8.3 ± 7.0%
  pS6 S/N ratio: 5.7 ± 3.6
[3]; Mono, monocytes
  pS6 Percent (%) Responding Cells, Mean: 76.9 ± 11.8%
  pS6 S/N ratio: 25.8 ± 20.8
[4]; CD34^+ (CD34^+/CD117^+ cells)
  pSTAT3 Percent (%) Responding Cells, Mean: 10.4 ± 7.9%
  pSTAT3 S/N ratio: 1.7 ± 0.2
[4]; CD117^+ (CD34^−/CD117^+ cells)
  pSTAT3 Percent (%) Responding Cells, Mean: 7.9 ± 8.7%
  pSTAT3 S/N ratio: 2.6 ± 0.8
[4]; G1, immature myeloid cells
  pSTAT3 Percent (%) Responding Cells, Mean: 58.7% and 58.7 ± 39.9%
  pSTAT3 S/N ratio: 6.8 ± 2.5
[4]; G2, intermediate myeloid cells
  pSTAT3 Percent (%) Responding Cells, Mean: 59.1 ± 30.4%
  pSTAT3 S/N ratio: 7.3 ± 2.1
[4]; G3, mature myeloid cells
  pSTAT3 Percent (%) Responding Cells, Mean: 76.0 ± 30.8%
  pSTAT3 S/N ratio: 8.8 ± 2.7
[4]; Mono, monocytes
  pSTAT3 S/N ratio: 2.3 ± 0.3
[5]; CD34^+ (CD34^+/CD117^+ cells)
  pSTAT5 Percent (%) Responding Cells, Mean: 74.7%
  pSTAT5 S/N ratio: 19.8 ± 9.7
[5]; CD117^+ (CD34^−/CD117^+ cells)
  pSTAT5 Percent (%) Responding Cells, Mean: 58.2 ± 11.8%
[5]; G2, intermediate myeloid cells
  pSTAT5 Percent (%) Responding Cells, Mean: 98.8 ± 0.4%
  pSTAT5 S/N ratio: 18.3 ± 5.5
[5]; Mono, monocytes
  pSTAT5 S/N ratio: 14.7 ± 4.5
[5]; [6]
  pSTAT5, Normal Sample: 74.7 and 75.1

## Stem Cell Factor [SCF]
[1]; CD34^+ (CD34^+/CD117^+ cells)
  pAKT Percent (%) Responding Cells, Mean: 58.0% and 58.0 ± 27.3%
  pAKT S/N ratio: 7.5 and 7.5 ± 5.7
[1]; CD117^+ (CD34^−/CD117^+ cells)
  pAKT Percent (%) Responding Cells, Mean: 60.6% and 60.6 ± 33.5%
  pAKT S/N ratio: 7.3 ± 5.4
[1]; G1, immature myeloid cells
  pAKT Percent (%) Responding Cells, Mean: 2.9 ± 2.4%
  pAKT S/N ratio: 2.2 ± 1.1
[1]; G2, intermediate myeloid cells
  pAKT Percent (%) Responding Cells, Mean: 3.9 ± 3.9%
  pAKT S/N ratio: 2.3 ± 1.0
[1]; G3, mature myeloid cells
  pAKT Percent (%) Responding Cells, Mean: 4.2 ± 3.0%
  pAKT S/N ratio: 2.6 ± 1.2
[1]; Mono, monocytes
  pAKT Percent (%) Responding Cells, Mean: 6.5 ± 8.2%
  pAKT S/N ratio: 2.4 ± 1.0
[1]
  pAKT, Normal Sample: 58.0
[2]; CD34^+ (CD34^+/CD117^+ cells)
  pERK Percent (%) Responding Cells, Mean: 89.8% and 89.8 ± 6.9%
  pERK S/N ratio: 13.3 and 13.3 ± 4.9
[2]; CD117^+ (CD34^−/CD117^+ cells)
  pERK Percent (%) Responding Cells, Mean: 67.7% and 67.7 ± 20.1%
  pERK S/N ratio: 8.6 ± 3.2
[2]; G1, immature myeloid cells
  pERK Percent (%) Responding Cells, Mean: 1.6 ± 0.8%
  pERK S/N ratio: 2.9 ± 0.6
[2]; G2, intermediate myeloid cells
  pERK Percent (%) Responding Cells, Mean: 2.8 ± 2.1%
  pERK S/N ratio: 2.7 ± 0.5
[2]; G3, mature myeloid cells
  pERK Percent (%) Responding Cells, Mean: 6.5 ± 7.2%
  pERK S/N ratio: 3.1 ± 0.6
[2]; Mono, monocytes
  pERK Percent (%) Responding Cells, Mean: 13.6 ± 3.6%
  pERK S/N ratio: 3.2 ± 2.1
[2]; Table 7 comparison value, matches S/N ratio of Table 1
  pERK, Normal Sample (first AML5 line): 13.3
[2]; [6]
  pERK, Normal Sample: 89.8
[3]; CD34^+ (CD34^+/CD117^+ cells)
  pS6 Percent (%) Responding Cells, Mean: 81.7% and 81.7 ± 16.3%
  pS6 S/N ratio: 48.4 and 48.4 ± 39.3
[3]; CD34^−CD117^+ cells, normal BM, non-homogeneous response
  pS6 fraction positive responding: 53.8%
[3]; CD117^+ (CD34^−/CD117^+ cells)
  pS6 Percent (%) Responding Cells, Mean: 51.9% and 51.9 ± 16.9%
  pS6 S/N ratio: 108.2 ± 94.9
[3]; G1, immature myeloid cells
  pS6 Percent (%) Responding Cells, Mean: 2.1 ± 1.4%
  pS6 S/N ratio: 3.3 ± 1.9
[3]; G2, intermediate myeloid cells
  pS6 Percent (%) Responding Cells, Mean: 2.1 ± 1.2%
  pS6 S/N ratio: 2.9 ± 1.8
[3]; G3, mature myeloid cells
  pS6 Percent (%) Responding Cells, Mean: 3.8 ± 2.6%
  pS6 S/N ratio: 3.5 ± 2.3
[3]; Mono, monocytes
  pS6 Percent (%) Responding Cells, Mean: 43.5 ± 19.9%
  pS6 S/N ratio: 11.2 ± 12.3
[4]; CD34^+ (CD34^+/CD117^+ cells)
  pSTAT3 Percent (%) Responding Cells, Mean: 7.3 ± 4.3%
  pSTAT3 S/N ratio: 1.9 ± 0.2
[4]; CD117^+ (CD34^−/CD117^+ cells)
  pSTAT3 Percent (%) Responding Cells, Mean: 2.6 ± 1.4%
  pSTAT3 S/N ratio: 2.5 ± 0.6
[4]; G1, immature myeloid cells
  pSTAT3 Percent (%) Responding Cells, Mean: 3.0 ± 3.5%
  pSTAT3 S/N ratio: 3.3 ± 0.5
[4]; G2, intermediate myeloid cells
  pSTAT3 Percent (%) Responding Cells, Mean: 2.2 ± 1.8%
  pSTAT3 S/N ratio: 3.3 ± 0.5
[4]; G3, mature myeloid cells
  pSTAT3 Percent (%) Responding Cells, Mean: 4.7 ± 4.0%
  pSTAT3 S/N ratio: 3.6 ± 0.6
[4]; Mono, monocytes
  pSTAT3 Percent (%) Responding Cells, Mean: 4.4 ± 2.0%
  pSTAT3 S/N ratio: 2.4 ± 0.3
[5]; CD34^+ (CD34^+/CD117^+ cells)
  pSTAT5 Percent (%) Responding Cells, Mean: 11.6 ± 3.0%
  pSTAT5 S/N ratio: 1.5 ± 0.9
[5]; CD117^+ (CD34^−/CD117^+ cells)
  pSTAT5 Percent (%) Responding Cells, Mean: 7.4 ± 4.7%
  pSTAT5 S/N ratio: 2.2 ± 0.7
[5]; G1, immature myeloid cells
  pSTAT5 Percent (%) Responding Cells, Mean: 6.8 ± 8.0%
  pSTAT5 S/N ratio: 3.1 ± 0.7
[5]; G2, intermediate myeloid cells
  pSTAT5 Percent (%) Responding Cells, Mean: 4.9 ± 5.6%
  pSTAT5 S/N ratio: 3.2 ± 0.7
[5]; G3, mature myeloid cells
  pSTAT5 Percent (%) Responding Cells, Mean: 6.9 ± 6.7%
  pSTAT5 S/N ratio: 3.8 ± 0.8
[5]; Mono, monocytes
  pSTAT5 Percent (%) Responding Cells, Mean: 9.5 ± 13.8%
  pSTAT5 S/N ratio: 2.5 ± 0.6
